Molecular target: T1, Human Factor D (Homo sapiens, UniProt P00746)
T1 construct: purified from human serum; purchased Complement Technology, Inc; host or cells: human serum (natural protein, not recombinant)
Assay: Human Factor D Assay
Assay type: biochemical
Details: Table 1; Factor D 80 nM, substrate Z-L-Lys-SBzl; read-out: IC50
Procedure: Human Factor D (purified from human serum, Complement Technology, Inc.) at 80 nM final concentration is incubated with test compound at various concentrations for 5 minutes at room temperature in 50 mM Tris, 1M NaCl, pH 7.5. A synthetic substrate Z-L-Lys-SBzl and DTNB (Ellman's reagent) are added to final concentrations of 100 μM each. Absorbance at 405 nm (A405) is recorded at 30 second intervals for 30 minutes using a microplate spectrophotometer. IC50 values are calculated by nonlinear regression of complement Factor D reaction rates as a function of test compound concentration.

T1 sequence (P00746 26-253): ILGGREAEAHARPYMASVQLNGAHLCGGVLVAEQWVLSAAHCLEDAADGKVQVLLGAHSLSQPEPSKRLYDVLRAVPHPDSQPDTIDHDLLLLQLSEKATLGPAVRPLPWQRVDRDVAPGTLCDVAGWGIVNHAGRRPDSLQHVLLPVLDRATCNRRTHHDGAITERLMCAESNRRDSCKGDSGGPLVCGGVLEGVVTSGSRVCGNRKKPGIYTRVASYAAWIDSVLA

SMILES	IC50
CC(=O)c1cn(CC(=O)N2C[C@H](F)C[C@H]2C(=O)NCc2cccc(Cl)c2F)c2ccc(NC(=O)NC3CC3)cc12 [Compound 1, (2S,4R)-1-(2-(3-acetyl-5-(3-cyclopropylureido)-1H-indol-1-yl)acetyl)-N-(3-chloro-2-fluorobenzyl)-4-fluoropyrrolidine-2-carboxamide]	< 1000 nM
CC(=O)c1cn(CC(=O)N2C[C@H](F)C[C@H]2C(=O)NCc2cccc(Cl)c2F)c2ccc(NC(=O)NCc3nn[nH]n3)cc12 [Compound 2, (2S,4R)-1-(2-(5-(3-((2H-tetrazol-5-yl)methyl)ureido)-3-acetyl-1H-indol-1-yl)acetyl)-N-(3-chloro-2-fluorobenzyl)-4-fluoropyrrolidine-2-carboxamide]	< 1000 nM
CC(=O)c1cn(CC(=O)N2[C@@H]3C[C@@H]3C[C@H]2C(=O)NCc2cccc(Cl)c2F)c2ccc(NC(=O)NC3CC3)cc12 [Compound 3, (1R,3S,5R)-2-(2-(3-acetyl-5-(3-cyclopropylureido)-1H-indol-1-yl)acetyl)-N-(3-chloro-2-fluorobenzyl)-2-azabicyclo[3.1.0] hexane-3-carboxamide]	< 1000 nM
CC(=O)c1cn(CC(=O)N2C[C@H](F)C[C@H]2C(=O)NCc2cccc(Cl)c2F)c2ccc(NC(=O)NC3(C)CC3)cc12 [Compound 4, (2S,4R)-1-(2-(3-acetyl-5-(3-(1-methylcyclopropyl)ureido)-1H-indol-1-yl)acetyl)-N-(3-chloro-2-fluorobenzyl)-4-fluoropyrrolidine-2-carboxamide]	< 1000 nM
CC(=O)c1cn(CC(=O)N2[C@@H]3C[C@@H]3C[C@H]2C(=O)N[C@H](C)c2cccc(Cl)c2F)c2ccc(NC(=O)NC3CC3)cc12 [Compound 5, (1R,3S,5R)-2-(2-(3-acetyl-5-(3-cyclopropylureido)-1H-indol-1-yl)acetyl)-N-((R)-1-(3-chloro-2-fluorophenyl)ethyl)-2-azabicyclo[3.1.0] hexane-3-carboxamide]	< 1000 nM
CC(=O)c1cn(CC(=O)N2C[C@H](F)C[C@H]2C(=O)NCc2cccc(Cl)c2F)c2ccc(NC(=O)NC(C)C)cc12 [Compound 6, (2S,4R)-1-(2-(3-acetyl-5-(3-isopropylureido)-1H-indol-1-yl)acetyl)-N-(3-chloro-2-fluorobenzyl)-4-fluoropyrrolidine-2-carboxamide]	< 1000 nM
CC(=O)c1cn(CC(=O)N2C[C@H](F)C[C@H]2C(=O)NCc2cccc(Cl)c2F)c2ccc(NC(=O)NCc3ccon3)cc12 [Compound 7, (2S,4R)-1-(2-(3-acetyl-5-(3-(isoxazol-3-ylmethyl)ureido)-1H-indol-1-yl)acetyl)-N-(3-chloro-2-fluorobenzyl)-4-fluoropyrrolidine-2-carboxamide]	< 1000 nM
CC(=O)c1cn(CC(=O)N2C[C@H](F)C[C@H]2C(=O)NCc2cccc(Cl)c2F)c2ccc(NC(=O)NCc3ncccn3)cc12 [Compound 8, (2S,4R)-1-(2-(3-acetyl-5-(3-(pyrimidin-2-ylmethyl)ureido)-1H-indol-1-yl)acetyl)-N-(3-chloro-2-fluorobenzyl)-4-fluoropyrrolidine-2-carboxamide]	< 1000 nM
CC(=O)c1cn(CC(=O)N2C[C@H](F)C[C@H]2C(=O)NCc2cccc(Cl)c2F)c2ccc(NC(=O)N3CCCC3)cc12 [Compound 9, N-(3-acetyl-1-(2-((2S,4R)-2-(3-chloro-2-fluorobenzylcarbamoyl)-4-fluloropyrrolidin-1-yl)-2-oxoethyl)-1H-indol-5-yl)pyrrolidine-1-carboxamide]	< 1000 nM
CC(=O)c1cn(CC(=O)N2C[C@H](F)C[C@H]2C(=O)Nc2cccc(OC(F)(F)F)c2F)c2ccc(NC(=O)NC3CC3)cc12 [Compound 10, (2S,4R)-1-(2-(3-acetyl-5-(3-cyclopropylureido)-1H-indol-1-yl)acetyl)-4-fluoro-N-(2-fluoro-3-(trifluoromethoxy)phenyl)pyrrolidine-2-carboxamide]	< 1000 nM
CC(=O)c1cn(CC(=O)N2[C@@H]3C[C@@H]3C[C@H]2C(=O)Nc2cccc(OC(F)(F)F)c2F)c2ccc(NC(=O)NC3CC3)cc12 [Compound 11, (1R,3S,5R)-2-(2-(3-acetyl-5-(3-cyclopropylureido)-1H-indol-1-yl)acetyl)-N-(2-fluoro-3-(trifluoromethoxy)phenyl)-2-azabicyclo[3.1.0] hexane-3-carboxamide]	< 1000 nM
CC(=O)c1cn(CC(=O)N2[C@@H]3C[C@@H]3C[C@H]2C(=O)NCc2cccc(Cl)c2F)c2ccc(NC(=O)N3CCCC3)cc12 [Compound 12, (1R,3S,5R)-2-(2-(3-acetyl-5-(pyrrolidine-1-carboxamido)-1H-indol-1-yl)acetyl)-N-(3-chloro-2-fluorobenzyl)-2-azabicyclo[3.1.0] hexane-3-carboxamide]	< 1000 nM
CC(=O)c1cn(CC(=O)N2C[C@H](F)C[C@H]2C(=O)NCc2cccc(Cl)c2F)c2ccc(NC(=O)N3CCC(F)(F)C3)cc12 [Compound 13, N-(3-acetyl-1-(2-((2S,4R)-2-(3-chloro-2-fluorobenzylcarbamoyl)-4-fluoropyrrolidin-1-yl)-2-oxoethyl)-1H-indol-5-yl)-3,3-difluoropyrrolidine-1-carboxamide]	< 1000 nM
CC(=O)c1cn(CC(=O)N2C[C@H](F)C[C@H]2C(=O)NCc2cccc(Cl)c2F)c2ccc(NC(=O)OC3CC3)cc12 [Compound 14, cyclopropyl 3-acetyl-1-(2-((2S,4R)-2-(3-chloro-2-fluorobenzylcarbamoyl)-4-fluoropyrrolidin-1-yl)-2-oxoethyl)-1H-indol-5-ylcarbamate]	< 1000 nM
CC(=O)c1cn(CC(=O)N2C[C@H](F)C[C@H]2C(=O)NCc2cccc(Cl)c2F)c2ccc(NC(=O)OCC3CC3)cc12 [Compound 15, cyclopropylmethyl 3-acetyl-1-(2-((2S,4R)-2-(3-chloro-2-fluorobenzylcarbamoyl)-4-fluoropyrrolidin-1-yl)-2-oxoethyl)-1H-indol-5-ylcarbamate]	< 1000 nM
CC(=O)c1cn(CC(=O)N2C[C@H](F)C[C@H]2C(=O)NCc2cccc(Cl)c2F)c2ccc(NC(=O)N3CCCC(F)(F)C3)cc12 [Compound 16, N-(3-acetyl-1-(2-((2S,4R)-2-(3-chloro-2-fluorobenzylcarbamoyl)-4-fluoropyrrolidin-1-yl)-2-oxoethyl)-1H-indol-5-yl)-3,3-difluoropiperidine-1-carboxamide]	< 1000 nM
CC(=O)c1cn(CC(=O)N2C[C@H](F)C[C@H]2C(=O)Nc2cccc(OC(F)(F)F)c2F)c2ccc(NC(=O)N3CCCC(F)(F)C3)cc12 [Compound 17, N-(3-acetyl-1-(2-((2S,4R)-4-fluoro-2-(2-fluoro-3-(trifluoromethoxy)phenylcarbamoyl)pyrrolidin-1-yl)-2-oxoethyl)-1H-indol-5-yl)-3,3-difluoropiperidine-1-carboxamide]	< 1000 nM
CC(=O)c1cn(CC(=O)N2C[C@H](F)C[C@H]2C(=O)Nc2cccc(-c3ccccc3Cl)c2F)c2ccc(NC(=O)N3CCCC(F)(F)C3)cc12 [Compound 18, N-(3-acetyl-1-(2-((2S,4R)-2-(2′-chloro-2-fluorobiphenyl-3-ylcarbamoyl)-4-fluoropyrrolidin-1-yl)-2-oxoethyl)-1H-indol-5-yl)-3,3-difluoropiperidine-1-carboxamide]	< 1000 nM
CC(=O)c1cn(CC(=O)N2C[C@H](F)C[C@H]2C(=O)NCc2cccc(Cl)c2F)c2ccc(NC(=O)Nc3ccon3)cc12 [Compound 19, (2S,4R)-1-(2-(3-acetyl-5-(3-isoxazol-3-ylureido)-1H-indol-1-yl)acetyl)-N-(3-chloro-2-fluorobenzyl)-4-fluoropyrrolidine-2-carboxamide]	< 1000 nM
CC(=O)c1cn(CC(=O)N2C[C@H](F)C[C@H]2C(=O)Nc2cccc(C(F)(F)F)n2)c2ccc(NC(=O)N3CCCC(F)(F)C3)cc12 [Compound 20, N-(3-acetyl-1-(2-((2S,4R)-4-fluoro-2-(6-(trifluoromethyl)pyridin-2-ylcarbamoyl)pyrrolidin-1-yl)-2-oxoethyl)-1H-indol-5-yl)-3,3-difluoropiperidine-1-carboxamide]	< 1000 nM
CC(=O)c1cn(CC(=O)N2C[C@H](F)C[C@H]2C(=O)NCc2cccc(Cl)c2F)c2ccc(NC(=O)NCC(F)(F)F)cc12 [Compound 21, (2S,4R)-1-(2-(3-acetyl-5-(3-(2,2,2-trifluoroethyl)ureido)-1H-indol-1-yl)acetyl)-N-(3-chloro-2-fluorobenzyl)-4-fluoropyrrolidine-2-carboxamide]	< 1000 nM
CC(=O)c1cn(CC(=O)N2C[C@H](F)C[C@H]2C(=O)NCc2cccc(Cl)c2F)c2ccc(NC(=O)N3Cc4cncnc4C3)cc12 [Compound 22, N-(3-acetyl-1-(2-((2S,4R)-2-(3-chloro-2-fluorobenzylcarbamoyl)-4-fluoropyrrolidin-1-yl)-2-oxoethyl)-1H-indol-5-yl)-5H-pyrrolo[3,4-d]pyrimidine-6(7H)-carboxamide]	< 1000 nM
CC(=O)c1cn(CC(=O)N2C[C@H](F)C[C@H]2C(=O)NCc2cccc(Cl)c2F)c2ccc(NC(=O)Nc3cncnc3)cc12 [Compound 23, (2S,4R)-1-(2-(3-acetyl-5-(3-pyrimidin-5-ylureido)-1H-indol-1-yl)acetyl)-N-(3-chloro-2-fluorobenzyl)-4-fluoropyrrolidine-2-carboxamide]	< 1000 nM
NC(=O)c1nn(CC(=O)N2C[C@H](F)C[C@H]2C(=O)Nc2cccc(-c3ccccc3Cl)c2F)c2ccc(NC(=O)N3CCCC(F)(F)C3)cc12 [Compound 24, 1-(2-((2S,4R)-2-(2′-chloro-2-fluorobiphenyl-3-ylcarbamoyl)-4-fluoropyrrolidin-1-yl)-2-oxoethyl)-5-(3,3-difluoropiperidine-1-carboxamido)-1H-indazole-3-carboxamide]	< 1000 nM
